Results taken from PMC9145865, “Effects of Rare Phytocannabinoids on the Endocannabinoid System of Human Keratinocytes” (International Journal of Molecular Sciences, 2022).

How the values were obtained:
Format in all cases: cell-based, human
Settings in all cases: HaCaT cells, half-IC50 dose, 24 h, vs. control
[1] = tested on: MAGL; experiment: Western blot protein expression of MAGL
Experimental: (§1) The HaCaT cells were seeded into 6-well plates at a density of 4 × 10^4 per well, incubated overnight and then treated with the selected pCBs (6.0 µM of CBG, 4.0 µM of CBC, 9.0 µM of THCV and 13.0 µM of CBGA) for 24 h. The cell pellets were collected and then lysed in an ice-cold lysis buffer (10 mM of EDTA, 50 mM of pH 7.4 Tris–HCl, 150 mM of sodium chloride, 1% Triton-X-100, 2 mM of phenylmethylsulfonyl fluoride, 2 mM of sodium orthovanadate, […] of leupeptin and […] of aprotinin). The amount of protein was determined using the Bio-Rad Protein assay (Bio-Rad Laboratories, Hemel Hempstead, UK). An equal amount of protein (60 µg) was loaded onto 10% sodium dodecyl sulfate–polyacrylamide gels and blotted onto polyvinylidene fluoride sheets (Amersham Biosciences, Piscataway, NJ, USA). The membranes were blocked with dried 5% non-fat milk for 1 h and then incubated with suitable primary antibodies. Detection was performed using Azure Biosystems c400 (Dublin, CA, USA). The membranes were stripped using the Restore Western Blot Stripping Buffer from Thermo Fisher Scientific (Waltham, MA, USA) for 30 min under agitation at room temperature, according to the manufacturer’s instructions. The primary antibodies (Table 6) that were used were obtained from the following sources: […]

[2] = tested on: DAGLα; experiment: Western blot protein expression of DAGLα
Experimental: as §1

[3] = tested on: PPARγ; experiment: qRT-PCR gene expression of PPARγ
Experimental: (§2) The HaCaT cells were seeded into 6-well plates at a density of 4 × 10^4 per well, incubated overnight and then treated with the selected pCBs (CBG (6.0 µM), CBC (4.0 µM), THCV (9.0 µM) and CBGA (13.0 µM)) for 24 h. The cell pellets were collected and RT-PCR reactions were performed using the RevertAid H Minus First Strand cDNA Synthesis Kit. The relative abundance was assessed via RT quantitative PCR (RT-qPCR) using the SensiFAST SYBR Lo-ROX Kit in an Applied Biosystems 7500 Fast Real-Time PCR System (Life Technologies). To provide the precise quantification of the initial target in each PCR reaction, the amplification plot was examined, as well as the point of early log phase of the product accumulation, which was defined by assigning a fluorescence threshold above the background that was defined as the threshold cycle number or “Ct. Differences” in threshold cycle number that was used to quantify the relative amount of the PCR targets that were contained within each tube. After PCR, a dissociation curve (melting curve) was constructed in the range of 60 °C to 95 °C [62] to evaluate the specificity of the amplification products. The relative expression of the different amplicons was calculated using the delta–delta Ct (ΔΔCt) method and then converted into the relative expression ratio (2^−ΔΔCt) for statistical analysis. All data were normalized to the endogenous reference genes β-actin and glyceraldehyde-3-phosphate dehydrogenase. The specific primers (Table 5) that were used were designed and ordered from Integrated DNA Technologies (IDT; Coralville, IA, USA) with the following sequences: […]

[4] = tested on: CB1; experiment: Western blot protein expression of CB1
Experimental: as §1

[5] = tested on: GPR55; experiment: qRT-PCR gene expression of GPR55
Experimental: as §2

[6] = tested on: FAAH; experiment: Western blot protein expression of FAAH
Experimental: as §1

[7] = tested on: CB1; experiment: qRT-PCR gene expression of CB1
Experimental: as §2

[8] = tested on: CB2; experiment: qRT-PCR gene expression of CB2
Experimental: as §2

[9] = tested on: MAGL; experiment: qRT-PCR gene expression of MAGL
Experimental: The HaCaT cells were seeded into 6-well plates at a density of 4 × 10^4 per well, incubated overnight and then treated with the selected pCBs (CBG (6.0 µM), CBC (4.0 µM), THCV (9.0 µM) and CBGA (13.0 µM)) for 24 h. The cell pellets were collected and RT-PCR reactions were performed using the RevertAid H Minus First Strand cDNA Synthesis Kit. The relative abundance was assessed via RT quantitative PCR (RT-qPCR) using the SensiFAST SYBR Lo-ROX Kit in an Applied Biosystems 7500 Fast Real-Time PCR System (Life Technologies). To provide the precise quantification of the initial target in each PCR reaction, the amplification plot was examined, as well as the point of early log phase of the product accumulation, which was defined by assigning a fluorescence threshold above the background that was defined as the threshold cycle number or “Ct. Differences” in threshold cycle number that was used to quantify the relative amount of the PCR targets that were contained within each tube. After PCR, a dissociation curve (melting curve) was constructed in the range of 60 °C to 95 °C [62] to evaluate the specificity of the amplification products. The relative expression of the different amplicons was calculated using the delta–delta Ct (ΔΔCt) method and then converted into the relative expression ratio (2^−ΔΔCt) for statistical analysis. […]

[10] = tested on: 2-AG; experiment: Endogenous 2-AG content by UHPLC-MS/MS
Experimental: The HaCaT cells were seeded into 6-well plates at a density of 4 × 10^4 per well, incubated overnight and then treated with the selected pCBs (6.0 µM of CBG, 4.0 µM of CBC, 9.0 µM of THCV and 13.0 µM of CBGA) for 24 h. The analytical standards that were used were N-arachidonoylethanolamine (AEA), N-arachidonoylethanolamine-d8 (AEA-d8), 2-arachidonoylglicerol (2-AG), 2-arachidonoylglicerol-d8 (2-AG-d8), N-palmitoylethanolamine (PEA) and […] (PEA-d4). The lipid fraction from these cells was extracted using chloroform–methanol–water (2:1:1 v/v) in the presence of ISs (1 ng/mL^−1 of AEA-d8, 100 ng mL^−1 of 2-AG-d8 and 1 ng mL^−1 of PEA-d4). The organic phase was dried under gentle nitrogen stream and then subjected to a micro-solid phase extraction (µSPE) procedure for a rapid clean-up using OMIX C18 tips from Agilent Technologies (Santa Clara, CA, USA). All analyses were performed using a Nexera XR LC 20 AD UHPLC system (Shimadzu Scientific Instruments, USA) that was equipped with Kinetex XB-C18 1.7 µm 100 × 2.1 mm from Phenomenex (Torrance, CA, USA) (for the LC parameters, see Figure S5) and coupled with a 4500 Qtrap from Sciex (Toronto, ON, Canada) that was equipped with a Turbo V electrospray ionization (ESI) source (the MS/MS parameters are shown in Table S1). The levels of AEA, 2-AG and PEA were then calculated as pmoles per 10^6 cells, as reported in [60].

| SMILES | MAGL protein expression (in words) [1] | Protein Expression MAGL [1] | DAGLα protein expression (in words) [2] | Protein Expression DAGLα [2] | Gene Expression PPARγ [3] | gene expression of PPARγ (in words) [3] | CB1 protein expression (in words) [4] | Protein Expression CB1 [4] | Gene Expression GPR55 [5] | gene expression of GPR55 (in words) [5] | FAAH protein expression (in words) [6] | Protein Expression FAAH [6] | Gene Expression CB1 [7] | gene expression of CB1 (in words) [7] | Gene Expression CB2 [8] | gene expression of CB2 (in words) [8] | gene expression of MAGL (in words) [9] | endogenous 2-AG content [10] |
| --- | --- | --- | --- | --- | --- | --- | --- | --- | --- | --- | --- | --- | --- | --- | --- | --- | --- | --- |
| CCCc1cc(O)c2c(c1)OC(C)(C)[C@@H]1CCC(C)=C[C@@H]21 [THCV, Δ^9-tetrahydrocannabivarin] | increased | ↑++++ | increased | ↑+++ | ↓++++ | significantly reduced | significantly reduced | ↓+ | ↑++++ | significant increase |  |  |  |  |  |  |  |  |
| CCCCCc1cc(O)c(C/C=C(\C)CCC=C(C)C)c(O)c1C(=O)O [CBGA, cannabigerolic acid] | increased | NAPE-PLD ↑++++ FAAH ↑++++ DAGLα ↑++++ MAGL ↑++++ | increased | NAPE-PLD ↑++++ FAAH ↑++++ DAGLα ↑++++ MAGL ↑++++ |  |  | significantly reduced | ↓++++ | GPR55 ↑+++ | significant increase | significantly increased | NAPE-PLD ↑++++ FAAH ↑++++ DAGLα ↑++++ MAGL ↑++++ |  |  |  |  |  |  |
| CCCCCc1cc(O)c2c(c1)OC(C)(CCC=C(C)C)C=C2 (stereo not shown) [CBC, cannabichromene] |  |  |  |  | ↓++ | reduced |  |  | ↓++++ | reduced | significantly increased |  | ↓++++ | significantly downregulated | ↓++ | significantly downregulated |  |  |
| CCCCCc1cc(O)c(C/C=C(\C)CCC=C(C)C)c(O)c1 [CBG, cannabigerol] |  |  |  |  |  |  |  |  |  |  |  |  | ↑++++ | significantly upregulate |  | significantly upregulate | significantly increase | markedly increased |
